What was measured:
Type in all cases: cell-based
HCC827 cells = experiment: Cell growth inhibition (CellTiter-Glo, 3 days) in HCC827; details: Homo sapiens, 72 h, 3 days after administration
How it was run: (§1)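 HCC827 cells in RPMI/10% FBS and A431 cells in DMEM/10% FBS were seeded at 5000 cells/well and left overnight. Compound was then added over a concentration range for 3 days of incubation, and viability was read by CellTiter-Glo luminescence.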

[1] = test system: HCC827-ASV cells (human EGFR exon 20 insertion mutant A769_D770insASV); experiment: Cell growth inhibition (CellTiter-Glo, 3 days) in HCC827-ASV; details: 72 h, 3 days after administration
How it was run: (§2)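 Growth inhibition used a CellTiter-Glo luminescence read-out after 3 days of compound exposure at various concentrations. Cells were plated the day before at 5000/well in RPMI plus 10% FBS. The lines are HCC827 transduced by lentivirus with codon-optimized EGFR ASV or ERBB2 YVMA exon 20 insertions.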

[2] = test system: HCC827-SVD cells (human EGFR exon 20 insertion mutant D770_N771 insSVD); experiment: Cell growth inhibition (CellTiter-Glo, 3 days) in HCC827-SVD; details: 72 h, 3 days after administration
How it was run: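 HCC827 cells carrying lentiviral codon-optimized EGFR D770_N771 insSVD, with endogenous EGFR knocked out by CRISPR (single clone), seeded at 5000 cells/well in RPMI with 10% FBS. Viability read by CellTiter-Glo luminescence.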

[3] = test system: HCC827-YVMA cells (human ERBB2 exon20 insertion mutant A775_G776ins YVMA); experiment: Cell growth inhibition (CellTiter-Glo, 3 days) in HCC827-YVMA; details: 72 h, 3 days after administration
How it was run: as §2

A431 cells = experiment: Cell growth inhibition (CellTiter-Glo, 3 days) in A431; details: Homo sapiens, A-431, 72 h, 3 days after administration
How it was run: as §1

GI50 (HCC827 cells) [nM]	GI50 [1] [nM]	GI50 [2] [nM]	GI50 [3] [nM]	GI50 (A431 cells) [nM]	Structure (SMILES)
≥ 1000	30 to 60	30 to 60	100 to 300	≥ 1000	C=CC(=O)N1CCC(Oc2cc3c(Nc4ccc(Oc5ccnc(N6C[C@H](OC)[C@H](OC)C6)c5)cc4F)ncnc3cc2OC)CC1 [Example 163, 1-(4-((4-((4-((2-((3R,4S)-3,4-dimethoxypyrrolidin-1-yl)pyridin-4-yl)oxy)-2-fluorophenyl)amino)-7-methoxyquinazolin-6-yl)oxy)piperidin-1-yl)prop-2-en-1-one]
300 to 600	< 30	< 30	< 30	600 to 1000	C=CC(=O)N1CCC(Nc2cc3c(Nc4ccc(Oc5ccnc(N6CCC[C@@H](OC)C6)c5)cc4F)ncnc3cc2OC)CC1 [Example 164, (R)-1-(4-((4-((2-fluoro-4-((2-(3-methoxypiperidin-1-yl)pyridin-4-yl)oxy)phenyl)amino)-7-methoxyquinazolin-6-yl)amino)piperidin-1-yl)prop-2-en-1-one]
300 to 600	100 to 300	≥ 1000	300 to 600	≥ 1000	C=CC(=O)N1CCC(Oc2cc3c(Nc4ccc(Oc5cc(N6C[C@@H](C)O[C@@H](C)C6)ncc5Cl)cc4F)ncnc3cc2OC)CC1 [Example 166, 1-(4-((4-((4-((5-chloro-2-((2R,6S)-2,6-dimethylmorpholino)pyridin-4-yl)oxy)-2-fluorophenyl)amino)-7-methoxyquinazolin-6-yl)oxy)piperidin-1-yl)prop-2-en-1-one]
≥ 1000	≥ 1000	300 to 600	≥ 1000	≥ 1000	C=CC(=O)Nc1cc2c(Nc3ccc(Oc4ccnc(-c5nc(C)cs5)c4)cc3F)ncnc2cc1OCC [Example 168, N-(7-ethoxy-4-((2-fluoro-4-((2-(4-methylthiazol-2-yl)pyridin-4-yl)oxy)phenyl)amino)quinazolin-6-yl)acrylamide]
≥ 1000	≥ 1000	≥ 1000	≥ 1000	≥ 1000	C=CC(=O)Nc1cc2c(Nc3ccc(Oc4ccnc(N5C[C@@H](C)O[C@@H](C)C5)c4)cc3F)ncnc2cc1OCC [Example 169, N-(4-((4-((2-((2S,6R)-2,6-dimethylmorpholino)pyridin-4-yl)oxy)-2-fluorophenyl)amino)-7-ethoxyquinazolin-6-yl)acrylamide]
600 to 1000	60 to 100	60 to 100	100 to 300	≥ 1000	C=CC(=O)N1CCC(Nc2cc3c(Nc4ccc(Oc5ccnc(N6CC[C@H](O)[C@H](F)C6)c5)cc4F)ncnc3cc2OC)CC1 [Example 170, 1-(4-((4-((2-fluoro-4-((2-((3R,4S)-3-fluoro-4-hydroxypiperidin-1-yl)pyridin-4-yl)oxy)phenyl)amino)-7-methoxyquinazolin-6-yl)amino)piperidin-1-yl)prop-2-en-1-one]
300 to 600	30 to 60	30 to 60	30 to 60	600 to 1000	C=CC(=O)N1CCC(Nc2cc3c(Nc4ccc(Oc5ccnc(N6CCC(O)C(C)(C)C6)c5)cc4F)ncnc3cc2OC)CC1 (stereo not drawn) [Example 171, 1-(4-((4-((2-fluoro-4-((2-(4-hydroxy-3,3-dimethylpiperidin-1-yl)pyridin-4-yl)oxy)phenyl)amino)-7-methoxyquinazolin-6-yl)amino)piperidin-1-yl)prop-2-en-1-one]
300 to 600	< 30	< 30	< 30	600 to 1000	C=CC(=O)N1CCC(Nc2cc3c(Nc4ccc(Oc5ccnc(N6CCC(O)C(F)(F)C6)c5)cc4F)ncnc3cc2OC)CC1 (stereo not drawn) [Example 172, 1-(4-((4-((4-((2-(3,3-difluoro-4-hydroxypiperidin-1-yl)pyridin-4-yl)oxy)-2-fluorophenyl)amino)-7-methoxyquinazolin-6-yl)amino)piperidin-1-yl)prop-2-en-1-one]
300 to 600	60 to 100	100 to 300	100 to 300	≥ 1000	C=CC(=O)N1CCC(Nc2cc3c(Nc4ccc(Oc5ccnc(N6CC[C@@H](O)C6)c5)cc4F)ncnc3cc2OC)CC1 [Example 173, (R)-1-(4-((4-((2-fluoro-4-((2-(3-hydroxypyrrolidin-1-yl)pyridin-4-yl)oxy)phenyl)amino)-7-methoxyquinazolin-6-yl)amino)piperidin-1-yl)prop-2-en-1-one]
600 to 1000	100 to 300	100 to 300	100 to 300	≥ 1000	C=CC(=O)N1CCC(Nc2cc3c(Nc4ccc(Oc5ccnc(N6CC[C@H](O)C6)c5)cc4F)ncnc3cc2OC)CC1 [Example 174, (S)-1-(4-((4-((2-fluoro-4-((2-(3-hydroxypyrrolidin-1-yl)pyridin-4-yl)oxy)phenyl)amino)-7-methoxyquinazolin-6-yl)amino)piperidin-1-yl)prop-2-en-1-one]
600 to 1000	30 to 60	30 to 60	30 to 60	≥ 1000	C=CC(=O)N1CCC(Nc2cc3c(Nc4ccc(Oc5ccnc(N6CC7(CC(O)C7)C6)c5)cc4F)ncnc3cc2OC)CC1 [Example 175, 1-(4-((4-((2-fluoro-4-((2-(6-hydroxy-2-azaspiro[3.3]heptan-2-yl)pyridin-4-yl)oxy)phenyl)amino)-7-methoxyquinazolin-6-yl)amino)piperidin-1-yl)prop-2-en-1-one]
100 to 300	< 30	30 to 60	< 30	600 to 1000	C=CC(=O)N1CCC(Nc2cc3c(Nc4ccc(Oc5ccnc(-c6nc(C)c(C)s6)c5)cc4F)ncnc3cc2OC)CC1 [Example 176, 1-(4-((4-((4-((2-(4,5-dimethylthiazol-2-yl)pyridin-4-yl)oxy)-2-fluorophenyl)amino)-7-methoxyquinazolin-6-yl)amino)piperidin-1-yl)prop-2-en-1-one]
100 to 300	< 30	< 30	< 30	300 to 600	C=CC(=O)N1CCC(Nc2cc3c(Nc4ccc(Oc5ccnc(-c6nc(C)sc6C)c5)cc4F)ncnc3cc2OC)CC1 [Example 177, 1-(4-((4-((4-((2-(2,5-dimethylthiazol-4-yl)pyridin-4-yl)oxy)-2-fluorophenyl)amino)-7-methoxyquinazolin-6-yl)amino)piperidin-1-yl)prop-2-en-1-one]
≥ 1000	300 to 600	300 to 600	300 to 600	≥ 1000	C=CC(=O)N1CCC(Nc2cc3c(Nc4ccc(Oc5ccnc(N6CCC(N)CC6)c5)cc4F)ncnc3cc2OC)CC1 [Example 178, 1-(4-((4-((4-((2-(4-aminopiperidin-1-yl)pyridin-4-yl)oxy)-2-fluorophenyl)amino)-7-methoxyquinazolin-6-yl)amino)piperidin-1-yl)prop-2-en-1-one]
≥ 1000	< 30	60 to 100	30 to 60	≥ 1000	C=CC(=O)N1CCC(Nc2cc3c(Nc4ccc(Oc5ccnc(N6CCN(C)[C@@H](C)C6)c5)cc4F)ncnc3cc2OC)CC1 [Example 179, (S)-1-(4-((4-((4-((2-(3,4-dimethylpiperazin-1-yl)pyridin-4-yl)oxy)-2-fluorophenyl)amino)-7-methoxyquinazolin-6-yl)amino)piperidin-1-yl)prop-2-en-1-one]
